Key:
mouse brain [1] = test: In vivo T7 phage display (biopanning), high throughput sequencing of brain phage; details: for reads associated with each sequence (Ion torrent sequencing): Round 5 of biopanning
Procedure: The in vivo phage screening in male Balb/C mice was performed as described in (Põšnograjeva et al., 2022) with some alterations. To reduce the background of unspecific phages in the brain, 4.5×10^10 pfu of UV-inactivated control insertless T7 phage was injected i.p. 30 min later, CX7C naïve T7 phage library or the phage pool recovered from the brain in the previous round of biopanning was injected i.v. and allowed to circulate for 30 min. The mice were anesthetized and perfused with PBS intracardially. The brain was removed, homogenized in LB-NP40 (1%) and the phages in the lysate were rescued by amplification in semi-solid media in E. coli strain BLT5403. Peptide-encoding portion of the phage genome was sequenced using Ion Torrent high throughput sequencing (HTS). 8 mice were used in the first round of biopanning (R1) to prevent creating a narrow bottleneck of selection in the first round of biopanning. 2 mice were used for all subsequent rounds (R2 . . . . R5). R5 was repeated with the additional step of isolating brain CD31+ cells from CD31− cells by magnetic-activated cell sorting. The mouse brains were dissociated using Dounce tissue grinder and Adult Brain Dissociation Kit (#130-107-677) and CD31+ cells were isolated from all the other brain cells using CD31 MicroBeads (#130-097-418) following the manufacturer's protocol for isolation and cultivation of endothelial cells from adult mouse brain. The cells were lysed in LB-NP40 (1%) and the samples were further processed following the same steps with samples of whole brain.
To identify peptides that accumulate in mouse brain, cross the blood-brain barrier and reach the brain parenchyma cells, in vivo T7 phage display was used. For round 1 of biopanning, naïve CX7C T7 peptide-phage library was injected into mice i.v. The phages accumulated in brain were rescued to be used as input in a subsequent round of biopanning. A consistent increase in the % of injected phage accumulating in the brain tissue through rounds 1 . . . 5 of biopanning was observed (FIG. 1A; To assess the % of injected phage that accumulated in the brain throughout the five rounds of biopanning (R1-R5), Peptide-phages were injected i.v. and following 30 min circulation mice were perfused with PBS. The phages rescued from the brain were reamplified and injected for a subsequent round of biopanning). The 5th round of bio-panning was then repeated with an additional step of isolating CD31+ brain endothelial cells from CD31− brain cells to detect peptides that not only accumulate in the brain, but also penetrate the endothelial cell layer lining the brain blood vessels (FIG. 1B; The total amount of phage rescued from mouse brain CD31+ and CD31− cell fractions after R5 with the additional step of isolating brain endothelial (CD31+) cells from all the other brain cells (parenchyma cells; CD31−)).
A complete listing of peptides that were identified from Ion Torrent high throughput sequencing from bio-panning Round 5 is set forth in Table 1B.

mouse brain [2] = test: In vivo phage display with CX4CYX library; details: for R1 reads: round 1; for R3 reads: round 3; for R3 > R1 (ratio of sequencing reads between round 3 and round 1): round 3 / round 1
Procedure: In vivo phage display with CX4CYX library was performed in three selection rounds. Phage library was injected intravenously to Balb/c mice and allowed to circulate for one hour. After circulation, the animals were anesthetized and perfused intracardially with acid and detergent buffers. Brain and control organs were collected and homogenized in 1% NP40-LB. Bound phages were rescued by amplification in E. coli and their genomic DNA was sequenced by Ion Torrent next generation DNA sequencing system.
A novel phage library CX4CYX was constructed based on the alanine-leucine screen to find new brain homing peptides). This knowledge directed us to construct a novel phage library CX4CYX (X—any amino acid), where Cys1, Cys6 and Tyr7 remained in their intact positions, and the four amino acid variable-domain laid between the cysteines, and one amino acid variability after Tyr7. Three rounds of phage bio-panning was performed to allow enrichment of peptides in the brain. Again acid and detergent buffers were used for perfusion to remove non-specifically bound phages from the brain after systemic administration of phage library (round 1) and recovered brain phage pools (round 2 and 3). HTS reads from round 1 to round 3 indicated decent enrichment of in-frame peptides in the brain (Table 6).

[3] = mouse 325, total reads in sample 135061
[4] = mouse 326, total reads in sample 218048

| Substance | reads associated with each sequence (Ion torrent sequencing) (mouse brain [1]; [3]) [reads] | reads associated with each sequence (Ion torrent sequencing) (mouse brain [1]; [4]) [reads] | R1 reads (mouse brain [2]) [reads] | R3 reads (mouse brain [2]) [reads] | R3 > R1 (ratio of sequencing reads between round 3 and round 1) (mouse brain [2]) | representation of peptide sequence in brain (mouse brain [1]; whole brain after round 5, CD31+ and CD31- brain cell fractions) |
| --- | --- | --- | --- | --- | --- | --- |
| MLGDPNLARRRVISRAKLAAALE | 4716 | 8755 | – | – | – | – |
| CTGSMCY | – | – | 3 | 841 | 280 | – |
| MLGDPILASRAVISRAKLAAALS | 54 | 194 | – | – | – | – |
| MLGDPNIVAKLAAALE | 271 | 368 | – | – | – | – |
| MLGDPILASRRVISRAKLAAALG | 33 | 108 | – | – | – | – |
| MLGDPILASRAVISRAKLAAHSS | 84 | 142 | – | – | – | – |
| IMLGDPILASRRVISRAKL | 68 | 116 | – | – | – | – |
| MLGDPILASRRVISRAKLA | 150 | 172 | – | – | – | – |
| MIGDANSSS | 2370 | 2197 | – | – | – | – |
| MLGDPILASRRVISRAKLAAAFE | 46 | 269 | – | – | – | – |
| CVGQLCY | – | – | 12 | 5355 | 446 | – |
| MLGDPNSC | 84 | 216 | – | – | – | – |
| CVCANCY [CVGANCY] | – | – | 24 | 7359 | 307 | – |
| CEGALCY | – | – | 17 | 39863 | 2345 | – |
| CKGSNCY | – | – | 4 | 2037 | 509 | – |
| MIGDPILASRRVISRAKLAA | 254 | 286 | – | – | – | – |
| CTGSLCY | – | – | 64 | 43464 | 679 | – |
| MLGDPNLARRRVISRAKLAAAL | 89 | 188 | – | – | – | – |
| MLGDPNSCTEGTRVTC | 1533 | 2339 | – | – | – | – |
| MLGDPILASRRVISRAKLAAALE [Pep1] | 80229 | 132268 | – | – | – | most represented peptide sequence in the whole brain after round 5 of bio-panning as well as in CD31+ and CD31− brain cell fractions |
| MLGDPILASRRVISRAK | 67 | 100 | – | – | – | – |

| Substance | reads associated with each sequence (Ion torrent sequencing) (mouse brain [1]; [3]) [reads] | reads associated with each sequence (Ion torrent sequencing) (mouse brain [1]; [4]) [reads] | R1 reads (mouse brain [2]) [reads] | R3 reads (mouse brain [2]) [reads] | R3 > R1 (ratio of sequencing reads between round 3 and round 1) (mouse brain [2]) | representation of peptide sequence in brain (mouse brain [1]; whole brain after round 5, CD31+ and CD31- brain cell fractions) |
| --- | --- | --- | --- | --- | --- | --- |
| MLGDPILASRRVISRAKLAAAL | 1495 | 2334 | – | – | – | – |
| CQGALCY | – | – | 27 | 8612 | 319 | – |
| CEGSLCY | – | – | 3 | 2833 | 944 | – |
| MLGDPILASRAVISRAKLAAA | 350 | 399 | – | – | – | – |
| CQGSNCY | – | – | 4 | 1202 | 301 | – |
| MLGDPILASERVISRAKLAAASS | 47 | 169 | – | – | – | – |
| MLGDPILASRRVISRAKLEAALE | 129 | 251 | – | – | – | – |
| CMGDLCY | – | – | 3 | 837 | 279 | – |
| CVGTLCY | – | – | 21 | 11631 | 554 | – |
| MLGDPILASRRVISRAKLAAALD | 34 | 119 | – | – | – | – |
| MLGDPILASRRVISRAKLAAVLE | 51 | 292 | – | – | – | – |
| CACPLCY [CAGPLCY] | – | – | 3 | 1232 | 411 | – |
| MIGDPILASRRVISR | 77 | 76 | – | – | – | – |
| MLGDPNSSSVDKLAAALE | 674 | 588 | – | – | – | – |
| MLGDPILASRRVISRAKLADALE | 142 | 359 | – | – | – | – |
| MLGDPILASRRVISRAKLAATLE | 39 | 143 | – | – | – | – |
| MIGDPNFAIRAVISRAKLAAALE | 543 | 825 | – | – | – | – |
| MLGDPNS | 57 | 84 | – | – | – | – |
| MIGDPILAGRRIVSRAKLAAALE | 315 | 480 | – | – | – | – |
| CAGSMCY | – | – | 14 | 9077 | 648 | – |

— patent publication US20260347399A1, “BRAIN PENETRATING PEPTIDES AND METHODS OF USE” (priority 2022, published 2026)
